Data taken from patent US20150216992A1, “EXTENDED RELEASE COMPOSITIONS OF AN AMINOALKYL NITRATE” (CARDIOLYNX AG, priority 2012, published 2015).

How the values were obtained:
L-NAME treated SHR rats = assay: Rat model for pharmacological activity using blood pressure as a marker; type: in vivo; conditions: AEN tosylate 0.5 mg/kg/h infused, valsartan 5 mg/kg single daily dose; for effect on blood pressure: after 1 and 2 weeks
Procedure: FIG. 5: Pharmacological activity of AEN tosylate, valsartan and AEN tosylate/valsartan combination on blood pressure in L-NAME treated SHR rats.
Column 1: AEN tosylate (0.5 mg/kg/h), column 2: valsartan (single dose 5 mg/kg), column 3: AEN tosylate (0.5 mg/kg/h) plus valsartan (single daily dose 5 mg/kg).
Hatched bars: blood pressure lowering versus control after 1 week, black solid bars after 2 weeks. Vertical axis: reduction in blood pressure in mm Hg
SHR rats were treated with L-NAME to increase blood pressure. Following treatment with L-NAME rats were treated continuously for two weeks with either AEN tosylate (1) with a continuously infused dose (using an osmotic pump) of 0.5 mg/kg/h (column 1 in FIG. 5), valsartan at 5 mg/kg, single daily dose (column 2 in FIG. 5) or AEN tosylate plus valsartan (combined doses, group 3 in FIG. 5). Effects on blood pressure were measured after 1 week and after 2 weeks of treatment.

[1] = in vivo; cited from earlier work
[2] = in vivo; cited from earlier work; remark: listed apart in the source

| SMILES | effect on blood pressure (L-NAME treated SHR rats) | NO-tolerance induction (L-NAME treated SHR rats; two weeks continuous treatment) | half-live [1] | development of nitrate tolerance [2] |
| --- | --- | --- | --- | --- |
| Cc1ccc(S(=O)(=O)O)cc1.NCCO[N+](=O)[O-] [AEN tosylate, 2-aminoethylnitrate (aen) tosylate] | continued pharmacological activity | without showing signs of NO-tolerance induction |  |  |
| NCCO[N+](=O)[O-] [AEN, 2-aminoethyl nitrate] |  |  | approx. 2 hours | no development of nitrate tolerance |
| CCCCC(=O)N(Cc1ccc(-c2ccccc2-c2nnn[nH]2)cc1)[C@H](C(=O)O)C(C)C [valsartan] | lowered blood pressure |  |  |  |
